Data taken from US9408406B2, “Food and beverage products containing 1,3-propanediol and methods of suppressing bitterness and enhancing sweetness in food and beverage products using 1,3-propanediol” (Kraft Foods Group Brands LLC, priority 2012, dated 2016).
Entries after “also recorded” stand apart in the source; their conditions may differ.

Assays:
[1] = system: consumers; assay: KCl bitterness sensitivity test (Example 3); type: in vivo, human
Text: (§1) On day 1 of testing, consumers were given two samples, one a 0.25% KCl solution and the other water, and asked “Which beverage is more bitter?” This was replicated a total of three times to obtain four different trials. Order within the pair was rotated. Those who selected the KCl sample at least three times across the four trials were classified as “KCl sensitive.” Consumers then evaluated three more pairs of samples with varying levels of 1,3-propanediol with KCl versus a standard control (no 1,3-propanediol) as outlined in Table 3 below.
(§2) After the first day of testing, it was determined the number of KCl Bitterness Sensitive consumers may have been overstated. It was hypothesized that respondents could detect differences between plain water and water containing KCl, such as saltiness, but may not have been perceiving bitterness. Therefore, a second bitterness sensitivity test was conducted on day 2 using three pairs of a KCl solution (0.25%) versus a NaCl solution (0.15%) in an attempt to have the solutions iso-salty. Two new levels of Zemea were evaluated along with KCl versus a standard control as outlined in Table 3 below.

[2] = system: consumers; assay: Paired consumer tasting of beverages with 0.05% Stevia SG95 with or without 1,3-propanediol (Example 1); type: in vivo, human
Experimental: Beverage samples were prepared to evaluate the effect of the level of 1,3-propanediol on Stevia. The beverages were prepared just prior to testing using water and the ingredients according to Table 1 below.
Four pairs of beverages were evaluated by consumers in one sitting. The order of evaluating the pairs of products was blocked so that the highest level of 1,3-propanediol (sample 4) was always served as the first pair of beverages along with its corresponding control. The order of evaluating the beverage samples within pairs was rotated. There was a timed five minute break between pairs. Water and unsalted crackers were used as a palate cleanser before tasting each beverage and between beverage pairs. The beverages were prepared at the facility prior to the onset of test using water along with the designated solutions.
The stevia used was SG95 from PureCircle. SG95 is a high purity combination (>95% steviol glycosides) of nine steviol glycosides. Reb A accounts for over half of the composition but also includes Rebaudioside D and Rebaudioside F. SG95 is 230 times sweeter than sugar.
The samples were tasted by consumers between 21-55 years of age who consume diet beverages at least once per month and are non-rejectors of flavored beverages. The consumers had no allergies or sensitivities to beverages or sweeteners, including artificial sweeteners.

[3] = system: tasters; assay: Paired taster test: which sample is more bitter, 0.25% KCl in water with or without 1,3-propanediol (Example 2); type: in vivo, human
Experimental: A 0.25% KCl in water solution was prepared and test samples were dosed with the appropriate amount of 1,3-propanediol according to Table 2 below. One ounce samples of each solution were prepared. The tasters received a pair (one blank and one dosed sample) and asked to rate which sample was more bitter. The scores in Table 2 are the number of tasters that chose that sample as being more bitter.

[4] = system: consumers; assay: Paired consumer tasting of beverages with 0.25% KCl with or without 1,3-propanediol (Example 3); type: in vivo, human
Experimental: Beverage samples were prepared to evaluate the effect of the level of 1,3-propanediol on KCl. The samples were tasted by consumers between 21-55 years of age with no allergies or sensitivities to food or beverages or ingredients.
as §1, §2
The order of evaluating the beverage samples within pairs were rotated (left/right). The order of evaluating the pairs of products was blocked so the highest level of 1,3-propanediol was always served as the first pair of beverages along with its control. There was a timed 5 minute break between pairs. Water and unsalted crackers were used as a palate cleanser before tasting each beverage and between beverage pairs.

[5] = system: tasters; assay: Triangle test for detecting 1,3-propanediol at low concentration (Example 4); type: in vivo, human; conditions: for tasters who could identify the 1,3-propanediol in a triangle test: four tasters
Experimental: Samples A-D were prepared according to Table 4 below to analyze and determine if 1,3-propanediol imparted any flavor when used at low concentrations. The samples were evaluated by a team of four tasters.
Samples A and B were compared.

[6] = system: panelists; assay: Panel assessment of Reb A beverage with or without 1,3-propanediol (Example 5); type: in vivo, human; conditions: Sample H versus Sample G
Experimental: Samples were prepared to analyze the effect of 1,3-propanediol with sweeteners such as Reb A. Samples G and H were prepared as shown in Table 5 below.
Nine panelists compared the samples. Panelists rinsed prior to tasting the samples and in between sample assessment with seltzer, unsalted crackers and water with a one-minute break between samples. Samples were assessed on the second sip. The results are shown below in Table 6 with the comments indicating the order of what was tasted in each of the samples (Scale: 0-15=None to Extreme).

[7] = system: tasters; assay: Taster evaluation with acetic acid (Example 7); type: in vivo, human; conditions: 0.05 percent acetic acid in water; none, 0.3 percent 1,3-propanediol or 0.3 percent propylene glycol; three tasters
Experimental: Samples were prepared to evaluate the effect of inclusion of 1,3-propanediol with acetic acid. Sample M included 0.05 percent acetic acid in water, Sample N included 0.05 percent acetic acid in water with 0.3 percent 1,3-propanediol, and Sample O included 0.05 percent acetic acid in water with 0.3 percent propylene glycol. The samples were evaluated by a team of three tasters.

[8] = system: tasters; assay: Taster evaluation with 1% citric acid (Example 9); type: in vivo, human; conditions: 1 weight percent citric acid in water; 0.3 weight percent propylene glycol (V), none (W) or 1,3-propanediol (X); four tasters
Experimental: Samples were prepared to evaluate the effect of including 1,3-propanediol with a higher concentration of citric acid than in Example 8. Sample V included 1 weight percent citric acid and 0.3 weight percent propylene glycol in water. Sample W included 1 weight percent citric acid in water. Sample X included 1 weight percent citric acid in water with 0.3 weight percent 1,3-propanediol. The samples were then evaluated by a team of four tasters.

[9] = system: tasters; assay: Taster evaluation with malic acid (Example 10); type: in vivo, human; conditions: 1 weight percent malic acid in water; 0.3 weight percent 1,3-propanediol (Y), propylene glycol (Z) or none (AA)
Experimental: Samples were prepared to evaluate the effect of including 1,3-propanediol with malic acid. Sample Y included 1 weight percent malic acid with 0.3 weight percent 1,3-propanediol in water. Sample Z included 1 weight percent malic acid and 0.3 weight percent propylene glycol in water. Sample AA included 1 weight percent malic acid in water.

[10] = system: tasters; assay: Taster evaluation with earl grey tea (Example 11); type: in vivo, human; conditions: steeped earl grey tea; 0.3 weight percent 1,3-propanediol (AB), none (AC) or propylene glycol (AD); four tasters
Experimental: Samples were prepared to evaluate the effect of including 1,3-propanediol with tea. Six earl grey tea bags were combined with 250 ml of water for 30 minutes. Sample AB included 0.3 weight percent 1,3-propanediol in the steeped tea and Sample AD included 0.3 weight percent propylene glycol in the steeped tea. Sample AC was a tea only control. The samples were evaluated by a team of four tasters.

[11] = system: tasters; assay: Taster evaluation with Robusta instant coffee (Example 12); type: in vivo, human; conditions: 1 weight percent Robusta instant coffee in water; 0.3 weight percent propylene glycol (AE), none (AF) or 1,3-propanediol (AG)
Experimental: Samples were prepared to evaluate the effect of including 1,3-propanediol with coffee. Robusta instant coffee was prepared with 1 weight percent coffee in water. Sample AE included 0.3 weight percent propylene glycol in the prepared coffee. Sample AF was a coffee only control. Sample AG included 0.3 weight percent 1,3-propanediol in the prepared coffee.

[12] = system: tasters; assay: Bitterness perception with potassium chloride, taster panel (Example 6); conditions: 0.3% KCl in water; 0.3% 1,3-propanediol, none or 0.3% propylene glycol; five tasters
[13] = first round, Pair 1: 0.0019 percent 1,3-propanediol with 0.05% Stevia SG95
[14] = first round, Pair 2: 0.0075 percent 1,3-propanediol with 0.05% Stevia SG95
[15] = second round, Pair 2: 0.000005 percent 1,3-propanediol with 0.05% Stevia SG95
[16] = second round, Pair 4: 0.0005 percent 1,3-propanediol with 0.05% Stevia SG95
[17] = 0.000005 ppm 1,3-propanediol in 0.25% KCl in water
[18] = 0.00005 ppm 1,3-propanediol in 0.25% KCl in water
[19] = 0.005 ppm 1,3-propanediol in 0.25% KCl in water
[20] = 0.05 ppm 1,3-propanediol in 0.25% KCl in water
[21] = 0.5 ppm 1,3-propanediol in 0.25% KCl in water
[22] = 5 ppm 1,3-propanediol in 0.25% KCl in water
[23] = 50 ppm 1,3-propanediol in 0.25% KCl in water
[24] = 100 ppm 1,3-propanediol in 0.25% KCl in water
[25] = 500 ppm 1,3-propanediol in 0.25% KCl in water
[26] = 5000 ppm 1,3-propanediol in 0.25% KCl in water
[27] = about 0.0005% 1,3-propanediol with 0.25% KCl, consumers (general population), FIG. 4

## [Cl-].[K+] [KCl, potassium chloride]
[1]; day 1: 0.25% KCl solution versus water
  share of “KCl sensitive” consumers: 67%
[1]; day 2: KCl solution (0.25%) versus NaCl solution (0.15%)
  share of “KCl sensitive” consumers: 53%

## OCCCO [1,3-propanediol]
[2]; [13]
  Stevia bitterness versus control: significantly less Stevia bitterness
  more mouth drying, longer lasting aftertaste and sweetness versus control: Neither the control nor the experimental sample of Pair 1 demonstrated significantly
  sweetness versus control: fell short on being sweeter than control
[2]; [14]
  all other attributes versus control: selected about equally
  mouth drying versus control: significantly more “mouth drying”
[2]; first round, Pair 3: 0.0150 percent 1,3-propanediol with 0.05% Stevia SG95
  attributes versus control: no statistical differences in attributes
[2]; first round, Pair 4: 0.03 percent 1,3-propanediol (text; Table 1 prints 0.3%) with 0.05% Stevia SG95
  attributes versus control: no statistical differences in attributes
[2]; first round, Pair 4 level of 1,3-propanediol with 0.05% Stevia SG95
  bitterness versus control: numerically more bitterness
[2]; second round, Pair 1: 0.0000005 percent 1,3-propanediol with 0.05% Stevia SG95
  attributes versus control: no statistical differences in attributes
[2]; [15]
  aftertaste compared to control: significantly longer lasting aftertaste
  all other attributes versus control: selected about equally
[2]; second round, Pair 3: 0.00005 percent 1,3-propanediol with 0.05% Stevia SG95
  attributes versus control: no statistical differences in attributes
[2]; [16]
  bitterness compared to control: significantly less bitterness
  sweetness compared to control: more sweetness; also recorded: significantly sweeter versus control
[3]; [17]
  % of tasters that chose the control as more bittter: 63%
  number of tasters that chose the 1,3-Propanediol sample as being more bitter: 3
[3]; [18]
  % of tasters that chose the control as more bittter: 63%
  number of tasters that chose the 1,3-Propanediol sample as being more bitter: 3
[3]; 0.0005 ppm 1,3-propanediol in 0.25% KCl in water
  % of tasters that chose the control as more bittter: 100%
[3]; [19]
  % of tasters that chose the control as more bittter: 50%
  number of tasters that chose the 1,3-Propanediol sample as being more bitter: 4
[3]; [20]
  % of tasters that chose the control as more bittter: 75%
  number of tasters that chose the 1,3-Propanediol sample as being more bitter: 2
[3]; [21]
  % of tasters that chose the control as more bittter: 63%
  number of tasters that chose the 1,3-Propanediol sample as being more bitter: 3
[3]; [22]
  % of tasters that chose the control as more bittter: 63%
  number of tasters that chose the 1,3-Propanediol sample as being more bitter: 3
[3]; [23]
  % of tasters that chose the control as more bittter: 75%
  number of tasters that chose the 1,3-Propanediol sample as being more bitter: 2
[3]; [24]
  % of tasters that chose the control as more bittter: 75%
  number of tasters that chose the 1,3-Propanediol sample as being more bitter: 2
[3]; [25]
  % of tasters that chose the control as more bittter: 75%
  number of tasters that chose the 1,3-Propanediol sample as being more bitter: 2
[3]; [26]
  % of tasters that chose the control as more bittter: 13%
  number of tasters that chose the 1,3-Propanediol sample as being more bitter: 7
[3]; 5000 ppm sample in 0.25% KCl in water
  taste of 1,3-propanediol itself: the bitterness of the 1,3-propanediol was apparent
[4]; 0.0005 percent 1,3-propanediol with 0.25% KCl, non-KCl sensitive consumers
  sweetness, statistical significance: statistically significant increase in sweetness
[4]; about 0.0005% 1,3-propanediol with 0.25% KCl, KCl sensitive consumers, FIG. 5
  reduced bitterness and increased sweetness: also found in the KCl sensitive consumers (FIG. 5), although to a less dramatic extent
[4]; [27]
  bitterness: reduced bitterness
  sweetness: increased sweetness
[5]; Samples A and B: 0.14% 1,3-propanediol in water
  tasters who could identify the 1,3-propanediol in a triangle test: one
[5]; Samples C and D: 0.14% 1,3-propanediol in water with 10% sucrose
  tasters who could identify the 1,3-propanediol in a triangle test: one
[5]; water or sucrose sweetened beverages
  detectability at low levels: generally not detectable at low levels
[6]
  effect on flavor profile with Reb A: general shift in bitter and sour flavor profiles
[7]
  sourness as indicated by the tasters: increases the sourness compared to water when combined with acetic acid
[8]
  sourness as indicated by the tasters: increased sourness perception when combined with citric acid
[9]
  sourness as indicated by the tasters: more sour upfront but less lingering
[10]
  other flavor notes / flavor profile as indicated by the tasters: sour, bitter, and astringent characteristics all changed
[11]
  bitterness as indicated by the tasters: less bitter than without 1,3-propanediol
[12]
  bitterness as indicated by the tasters: functioned to suppress bitterness when used with potassium chloride
